Laboratory results published in ChEMBL document CHEMBL1201862, “PubChem BioAssay data set” (2004).
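Following 48 hours of exposure in 96-well plates, responses at five concentrations were used to interpolate endpoints linearly. The concentration for 50% growth inhibition is given as GI50.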 Activity calls are given as the source filed them. Rule as the data show it: active = GI50 up to about 1.1 µM and inactive = higher.

Columns and labels:
Assay in all cases: inhibition of tumour cell growth, NCI panel, 48 h
SNB-75 = system: SNB-75
DMS-273 = system: DMS-273
COLO 205 = system: COLO 205
SK-OV-3 = system: SK-OV-3
HCT-116 = system: HCT-116
OVCAR-5 = system: OVCAR-5
HCT-15 = system: HCT-15
SF-539 = system: SF-539
HOP-18 = system: HOP-18
A549 = system: A549
M14 = system: M14
HOP-62 = system: HOP-62
UACC-62 = system: UACC-62
NCI-H226 = system: NCI-H226
NCI-H23 = system: NCI-H23
LXFL 529 = system: LXFL 529
SK-MEL-5 = system: SK-MEL-5
OVCAR-4 = system: OVCAR-4
TK-10 = system: TK-10
SNB-19 = system: SNB-19
RPMI-8226 = system: RPMI-8226
IGROV-1 = system: IGROV-1
SF-295 = system: SF-295
UACC-257 = system: UACC-257
HCC 2998 = system: HCC 2998
786-0 = system: 786-0
DMS-114 = system: DMS-114
NCI-H460 = system: NCI-H460
ACHN = system: ACHN
SK-MEL-2 = system: SK-MEL-2
NCI-H522 = system: NCI-H522
KM-20L2 = system: KM-20L2
EKVX = system: EKVX
CCRF-CEM = system: CCRF-CEM
OVCAR-8 = system: OVCAR-8
XF498 = system: XF498
A498 = system: A498
DLD-1 = system: DLD-1
HOP-92 = system: HOP-92
UO-31 = system: UO-31
CAKI-1 = system: CAKI-1
M19-MEL = system: M19-MEL
SN12C = system: SN12C
MOLT-4 = system: MOLT-4
RXF 393 = system: RXF 393
SR = system: SR
KM12 = system: KM12
SW-620 = system: SW-620
SNB-78 = system: SNB-78
HT-29 = system: HT-29
K562 = system: K562
SK-MEL-28 = system: SK-MEL-28
U-251 = system: U-251
SF-268 = system: SF-268
HL-60 = system: HL-60
Malme-3M = system: Malme-3M
OVCAR-3 = system: OVCAR-3

Q: COc1ccc([C@H]2CC(=O)N3CCCC3N2)cc1 (some centres not stated) was tested. Which GI50 (SNB-75) did it give?
A: > 100 µM (inactive)

Q: And the GI50 (DMS-273)?
A: > 100 µM (inactive)

Q: And the GI50 (COLO 205)?
A: > 100 µM (inactive)

Q: And the GI50 (SK-OV-3)?
A: > 100 µM (inactive)

Q: And the GI50 (HCT-116)?
A: > 100 µM (inactive)

Q: What about the GI50 (OVCAR-5) of the same molecule?
A: > 100 µM (inactive)

Q: And the GI50 (HCT-15)?
A: > 100 µM

Q: And the GI50 (SF-539)?
A: > 100 µM (inactive)

Q: What about the GI50 (HOP-18) of the same molecule?
A: 43 µM (inactive)

Q: And the GI50 (A549)?
A: > 100 µM (inactive)

Q: And the GI50 (M14)?
A: > 100 µM (inactive)

Q: What about the GI50 (HOP-62) of the same molecule?
A: > 100 µM (inactive)

Q: What about the GI50 (UACC-62) of the same molecule?
A: > 100 µM (inactive)

Q: And the GI50 (NCI-H226)?
A: > 100 µM (inactive)

Q: And the GI50 (NCI-H23)?
A: > 100 µM (inactive)

Q: And the GI50 (LXFL 529)?
A: > 100 µM (inactive)

Q: And the GI50 (SK-MEL-5)?
A: > 100 µM (inactive)

Q: What about the GI50 (OVCAR-4) of the same molecule?
A: > 100 µM (inactive)

Q: What about the GI50 (TK-10) of the same molecule?
A: > 100 µM (inactive)

Q: And the GI50 (SNB-19)?
A: > 100 µM (inactive)

Q: And the GI50 (RPMI-8226)?
A: > 100 µM (inactive)

Q: And the GI50 (IGROV-1)?
A: > 100 µM (inactive)

Q: And the GI50 (SF-295)?
A: > 100 µM (inactive)

Q: And the GI50 (UACC-257)?
A: > 100 µM (inactive)

Q: What about the GI50 (HCC 2998) of the same molecule?
A: > 100 µM (inactive)

Q: And the GI50 (786-0)?
A: > 100 µM (inactive)

Q: What about the GI50 (DMS-114) of the same molecule?
A: > 100 µM (inactive)

Q: What about the GI50 (NCI-H460) of the same molecule?
A: > 100 µM (inactive)

Q: And the GI50 (ACHN)?
A: > 100 µM (inactive)

Q: And the GI50 (SK-MEL-2)?
A: > 100 µM (inactive)

Q: And the GI50 (NCI-H522)?
A: > 100 µM (inactive)

Q: And the GI50 (KM-20L2)?
A: > 100 µM (inactive)

Q: And the GI50 (EKVX)?
A: > 100 µM (inactive)

Q: What about the GI50 (CCRF-CEM) of the same molecule?
A: > 100 µM (inactive)

Q: And the GI50 (OVCAR-8)?
A: > 100 µM (inactive)

Q: What about the GI50 (XF498) of the same molecule?
A: > 100 µM (inactive)

Q: And the GI50 (A498)?
A: > 100 µM (inactive)

Q: What about the GI50 (DLD-1) of the same molecule?
A: > 100 µM (inactive)

Q: And the GI50 (HOP-92)?
A: > 100 µM (inactive)

Q: And the GI50 (UO-31)?
A: > 100 µM (inactive)

Q: And the GI50 (CAKI-1)?
A: > 100 µM (inactive)

Q: What about the GI50 (M19-MEL) of the same molecule?
A: > 100 µM (inactive)

Q: What about the GI50 (SN12C) of the same molecule?
A: > 100 µM (inactive)

Q: What about the GI50 (MOLT-4) of the same molecule?
A: > 100 µM (inactive)

Q: And the GI50 (RXF 393)?
A: > 100 µM (inactive)

Q: And the GI50 (SR)?
A: > 100 µM (inactive)

Q: What about the GI50 (KM12) of the same molecule?
A: > 100 µM (inactive)

Q: What about the GI50 (SW-620) of the same molecule?
A: > 100 µM (inactive)

Q: What about the GI50 (SNB-78) of the same molecule?
A: > 100 µM (inactive)

Q: And the GI50 (HT-29)?
A: > 100 µM (inactive)

Q: And the GI50 (K562)?
A: > 100 µM (inactive)

Q: And the GI50 (SK-MEL-28)?
A: > 100 µM (inactive)

Q: What about the GI50 (U-251) of the same molecule?
A: > 100 µM (inactive)

Q: What about the GI50 (SF-268) of the same molecule?
A: > 100 µM (inactive)

Q: And the GI50 (HL-60)?
A: > 100 µM (inactive)

Q: And the GI50 (Malme-3M)?
A: > 100 µM (inactive)

Q: Which results are given for CC(C)=CC(=O)Oc1ccc([N+](=O)[O-])cc1?
A: GI50 (SNB-75): > 100 µM (inactive); GI50 (DMS-273): > 100 µM (inactive); GI50 (COLO 205): > 100 µM (inactive); GI50 (SK-OV-3): > 100 µM (inactive); GI50 (HCT-116): > 100 µM (inactive); GI50 (OVCAR-5): > 100 µM (inactive); GI50 (HCT-15): > 100 µM; GI50 (SF-539): > 100 µM (inactive); GI50 (HOP-18): > 100 µM (inactive); GI50 (A549): > 100 µM (inactive); GI50 (M14): > 100 µM (inactive); GI50 (HOP-62): > 100 µM (inactive); GI50 (UACC-62): > 100 µM (inactive); GI50 (NCI-H226): > 100 µM (inactive); GI50 (NCI-H23): > 100 µM (inactive); GI50 (LXFL 529): > 100 µM (inactive); GI50 (SK-MEL-5): > 100 µM (inactive); GI50 (OVCAR-4): > 100 µM (inactive); GI50 (TK-10): > 100 µM (inactive); GI50 (OVCAR-3): > 100 µM (inactive); GI50 (SNB-19): > 100 µM (inactive); GI50 (RPMI-8226): > 100 µM (inactive); GI50 (IGROV-1): > 100 µM (inactive); GI50 (SF-295): > 100 µM (inactive); GI50 (UACC-257): > 100 µM (inactive); GI50 (HCC 2998): > 100 µM (inactive); GI50 (786-0): > 100 µM (inactive); GI50 (DMS-114): > 100 µM (inactive); GI50 (NCI-H460): > 100 µM (inactive); GI50 (ACHN): > 100 µM (inactive); GI50 (SK-MEL-2): > 100 µM (inactive); GI50 (NCI-H522): 2.18 µM (inactive); GI50 (KM-20L2): > 100 µM (inactive); GI50 (EKVX): > 100 µM (inactive); GI50 (CCRF-CEM): > 100 µM (inactive); GI50 (OVCAR-8): > 100 µM (inactive); GI50 (XF498): > 100 µM (inactive); GI50 (A498): > 100 µM (inactive); GI50 (DLD-1): > 100 µM (inactive); GI50 (HOP-92): > 100 µM (inactive); GI50 (UO-31): > 100 µM (inactive); GI50 (CAKI-1): 20.7 µM (inactive); GI50 (M19-MEL): > 100 µM (inactive); GI50 (SN12C): > 100 µM (inactive); GI50 (MOLT-4): > 100 µM (inactive); GI50 (RXF 393): > 100 µM (inactive); GI50 (SR): > 100 µM (inactive); GI50 (KM12): 38.3 µM (inactive); GI50 (SW-620): > 100 µM (inactive); GI50 (SNB-78): > 100 µM (inactive); GI50 (HT-29): > 100 µM (inactive); GI50 (K562): > 100 µM (inactive); GI50 (U-251): > 100 µM (inactive); GI50 (SF-268): > 100 µM (inactive); GI50 (HL-60): 24.7 µM (inactive); GI50 (Malme-3M): > 100 µM (inactive)
